The values that follow come from US5849745A, “N-benzylpiperazine compounds” (ADIR et Compagnie, priority 1996, dated 1998).

Data set [1] relates to isolated rat heart (myocardium). The data set is described as follows: Ischemia-reperfusion sequence on isolated rat heart (contractile function and myocytic energetic metabolic response, 31P NMR). Particulars: 5×10^-6 M; for intracellular pH at the end of the ischemia: control falls from pH 7.2 to pH 6.0. The method, then: Study of the compounds of the invention on the contractile function of the myocardium and on the myocytic energetic metabolic response in the course of an ischemia-reinfusion sequence (isolated rat heart).
This study was carried out by means of the use of ^31 P NMR spectroscopy, this technique allowing the monitoring, on an isolated and infused heart, of the variation in the contents of phosphorylated compounds (ATP, phosphocreatine, inorganic phosphate) and in the intracellular pH. It allows continuous investigation of a number of variables linked with the energetic state of the myocardium and allows a comparative evaluation of the antiischemic properties of several products.
The isolated rat heart is infused aortically at a constant pressure (100 cm of water) for 30 min. and is then subjected to a partial global ischemia (coronary output reduced to 1.3% of the initial output) for 24 min., and, lastly, the heart is reinfused at constant pressure for 30 min.
Throughout the experiment, NMR spectra corresponding to 3-minute-long acquisitions are recorded. After statistical exploitation, they serve to determine the intracardial concentration of ATP, of phosphocreatine (PC) and of inorganic phosphate (Pi), as well as to evaluate the intracellular pH.
This procedure is intended to assess the effect of the presence of the product before and during the ischemia. To this end, the product is administered in the infusion medium after normoxic infusion for 20 min; it remains present in the infusion solution throughout the remainder of the experiment. A concentration of 5×10^-6 M was chosen for this comparative study.
This is intended to evaluate the effects of the products on the heart function. The heart is infused under the conditions defined above, and a catheter connected to a pressure sensor is introduced into the left ventrical (via the atrium) in order to monitor the pressure changes developed by the LV. The heart rate and the heart output are also monitored.
This is carried out in a superconducting magnet of 5.9 T in order to record the ^31 P NMR spectra. This series of experiments is intended to evaluate the impact of the product on the energetic equilibrium of the myocardium both in normoxia, in ischemia and in reinfusion.

Data set [2] can be described thus: Ability to cross the blood/brain barrier, endothelial cell/astrocyte coculture model. It counts as in vitro ADME. Particulars: in vitro coculture model, 37° C.; read-out: coefficient of permeability of the blood/brain barrier (Pe) (converted). As for the experimental part: (§1) In order to study the functions of cerebral capillaries "in vitro", we developed a coculture model which allows the "in vivo" situation to be recreated. The endothelial cells of capillaries and astrocytes are cultured on either side of a filter.
(§2) The endothelial cells are cultured in the upper compartment on the filter and the astrocytes in the lower compartment on the bottom of the Petri dish.
(§3) On the day of the experiment, a solution of Ringer-HEPES (150 mM NaCl; 5.2 mM KCl; 2.2 mM CaCl2; 0.2 mM MgCl2 ·6H2 O; 6 mM NaHCO3; 5 mM HEPES; 2.8 mM glucose) is placed in the lower compartment of a 6-well dish (3 ml per well). A filter of covered with a monolayer of endothelial cells is transferred into the first well of the 6-well dish. 2 ml of the Ringer-HEPES solution containing the test compound are placed in the upper compartment of the filter. […] The experiments are performed in triplicate with filters covered with a monolayer of endothelial cells from cerebral capillaries or of collagen alone as control. They are agitated at 37° C. throughout the experiment.
(§4) In the graph clearance=f(t), measurement of the slope gives the value "PSt" where PS=permeability×surface area of the monolayer (in μl/min) for the filters covered with cerebral capillary endothelial cells. "PSf" is calculated in the same way for the control filters. The permeability for the monolayer of endothelial cells alone (PSe) is given by: [formula]
(§5) The coefficient of endothelial permeability "Pe" is calculated by dividing "PSe" by the surface area of the monolayer of endothelial cells. "Pe" is expressed in "cm/min".

In data set [3] the test system is blood/brain barrier model (monolayer of cerebral capillary endothelial cells cocultured with astrocytes). The description is as above. Particulars: concluded from the coefficient of permeability. Format: in vitro ADME. As for the experimental part: as §1, §2, §3, §4, §5
Data set [4] concerns mitochondrial ATP synthesis (isolated rat liver mitochondria). The data set is described as follows: Mitochondrial energy (ATP) production during experimental calcium overload (cyclosporin A), isolated rat liver mitochondria. It counts as biochemical. The following applies: 1×10^-6 M. The method, then:
Briefly, the mitochondria are extracted from rat livers. Mitochondrial respiration (1.5 mg of proteins placed in a reaction chamber) is brought about by the addition of sodium succinate, which is used as substrate (at 6×10^-4 M) and oxidative phosphorylation is triggered by the addition of ADP to the survival medium up to a final concentration of 1×10^-5 M. By recording the rates of oxygen consumption (in nmol/min./mg of mitochondrial protein) it is possible to calculate the characteristic parameters of the mitochondrial energy synthesis in the form of ATP.

Structures are written as SMILES. Counter-ions that a name gives are not always drawn.

In the case of `CCN1CCN(Cc2ccc(OC)c(OC)c2OC(=O)[C@@H]2C[C@H]2c2ccccc2)CC1` (relative stereo) [Example 1, N-(3,4-Dimethoxy-2-E-phenylcyclopropylcarbonyloxy)benzyl-N'-ethylpiperazinedihydrochloride], in data set [1], the “cytoprotective effect during an ischemia-reinfusion sequence of the myocardium, compared with trimetazidine” value is listed as “greatly increased”; the “effect on the intracellular acidosis induced by the ischemia” value is listed as “particularly pronounced”; the “intracellular pH at the end of the ischemia” value is 6.5. In data set [2], the Papp is > 16.7 ×10⁻⁶ cm/s. For the same compound, in data set [3], the “penetration into the brain (in words)” value is on record as “penetrate the brain very easily”. Further, the “restoration of mitochondrial ATP synthesis” value in data set [4] turned out to be 100%.
On to `COc1ccc(CN2CCN(Cc3ccccc3)CC2)c(OC(=O)[C@@H]2C[C@H]2c2ccccc2)c1OC` (relative stereo) [Example 2, N-(3,4-Dimethoxy-2-E-phenylcyclopropylcarbonyloxy)benzyl-N'-benzylpiperazine dihydrochloride], for which the Papp in data set [2] was > 16.7 ×10⁻⁶ cm/s. The “penetration into the brain (in words)” value in data set [3] is recorded as “penetrate the brain very easily”.
The like results for `CCN1CCN(Cc2ccc(OC)c(OC)c2OC(=O)[C@@H]2C[C@H]2c2ccccc2)CC1` [Example 17, N-(3,4-Dimethoxy-2-E-(R,R)-phenylcyclopropylcarbonyloxy)benzyl-N'-ethylpiperazine dihydrochloride] were, in that order, > 16.7 ×10⁻⁶ cm/s and “penetrate the brain very easily”.
The like results for `CCN1CCN(Cc2ccc(OC)c(OC)c2OC(=O)[C@H]2C[C@@H]2c2ccccc2)CC1` [Example 19, N-(3,4-Dimethoxy-2-E-(S,S)-phenylcyclopropylcarbonyloxy)benzyl-N'-ethylpiperazine dihydrochloride] were, in that order, > 16.7 ×10⁻⁶ cm/s and “penetrate the brain very easily”.
`COc1ccc(CN2CCNCC2)c(OC)c1OC` [trimetazidine, 2,3,4-trimethoxybenzylpiperazine, reference compound]: the “intracellular pH at the end of the ischemia” value in data set [1] stood at 6.35. Besides, the Papp in data set [2] is 7 ×10⁻⁶ cm/s. The “penetration into the brain (in words)” value in data set [3] is reported as “penetrates poorly into the brain”.
